What was measured:
[1] = Absorbability of powder preparation for nasal administration using dogs (RIA); conditions: beagle, dog, in vivo, 50 ug/kg
Protocol: (§1) An anti-rabbit IgG goat serum was then added, and the mixture was allowed to stand for 1 hour at 4° C. The resulting sample was centrifuged and the radioactivity (gamma-ray) of the precipitate was measured by a gamma counter.
As a control, one additive-free sample of the composition for nasal administration was prepared.

[2] = in vivo; conditions: male, SD (Crj: CD), rat, plasma
Protocol: as §1
Male SD rats, aged 7 to 9 weeks and weighing about 250 g (Crj: CD, Charles River Japan Inc.,), were kept in a metal cage with a day/night cycle of 12 hours while maintaining the temperature at 22±5° C. and the humidity at 30 to 70%. The rats were allowed to feed freely on solid feed and tap water and were fasted for 24 hours prior to the test (3 animals per group).
[…] The blood was collected into a tube containing anticoagulant and enzyme inhibitor at 0, 5, 10, 15, 20, 30, 60, and 90 minutes after administration and was centrifuged to obtain plasma. […] For subcutaneous administration, the sample solution for subcutaneous administration (about 15 μg/mL) was subcutaneously administered in the back of the rats using a syringe at a dosage of 1 mL/kg.

[3] = Absorbability of powder preparation for nasal administration using cynomolgus monkeys, Test-1 (RIA); conditions: cynomolgus monkey, in vivo, sc, 13 ug/kg
Protocol: as §1
Each additive was added to the pharmaceutical composition in amounts of 0.5%, 1.0%, 10% and 50% with respect to the total weight of the preparation.
The bioavailability was determined by comparing the AUC after nasal administration with the AUC after subcutaneous administration.

[4] = system: blood glucose level; assay: Blood glucose level decreasing effect of nasally administered incretin hormones in glucose-loaded rats; assay type: in vivo; conditions: nasal powder about 100 μg polypeptide, 15 min after dosing, 10 min after 0.5 g/kg i.v. glucose, control 196
Protocol: As for the composition containing incretin hormones, the blood glucose level fell as compared with the control group. Moreover, also the incretin hormones, the blood glucose level fell when composition containing 5% corn starch is added compared with when 5% corn starch is not added.

[5] = background statement; cited from earlier work

CC[C@H](C)[C@H](NC(=O)[C@H](Cc1ccccc1)NC(=O)[C@H](CCC(=O)O)NC(=O)[C@H](CCCCN)NC(=O)[C@H](C)NC(=O)[C@H](C)NC(=O)[C@H](CCC(N)=O)NC(=O)CNC(=O)[C@H](CCC(=O)O)NC(=O)[C@H](CC(C)C)NC(=O)[C@H](Cc1ccc(O)cc1)NC(=O)[C@H](CO)NC(=O)[C@H](CO)NC(=O)[C@@H](NC(=O)[C@H](CC(=O)O)NC(=O)[C@H](CO)NC(=O)[C@@H](NC(=O)[C@H](Cc1ccccc1)NC(=O)[C@@H](NC(=O)CNC(=O)[C@H](CCC(=O)O)NC(=O)[C@H](C)NC(=O)[C@@H](N)Cc1c[nH]cn1)[C@@H](C)O)[C@@H](C)O)C(C)C)C(=O)N[C@@H](C)C(=O)N[C@@H](Cc1c[nH]c2ccccc12)C(=O)N[C@@H](CC(C)C)C(=O)N[C@H](C(=O)N[C@@H](CCCCN)C(=O)NCC(=O)N[C@@H](CCCNC(=N)N)C(N)=O)C(C)C [GLP-1(7-36)NH2, GLP-1 (7-36)NH2]
AUC(0-inf) [1]: 5.15 ± 5.13 ng·h/mL | Cmax [1]: 20.4 ± 3.48 ng/mL | AUC ([2]; inhaled or intranasal, 1 ug/kg): 2.47 ± 1.44 ng·h/mL | Cmax ([2]; inhaled or intranasal, 1 ug/kg): 4.7 ± 3.28 ng/mL | AUC ([2]; sc, 15 ug/kg): 3.82 ± 0.58 ng·h/mL | Cmax ([2]; sc, 15 ug/kg): 6.68 ± 0.86 ng/mL | AUC(0-inf) [3]: 3.23 ± 0.5 ng·h/mL | Cmax [3]: 6.37 ± 2.54 ng/mL

Exendin-4
blood glucose level (Mean) ([4]; composition: 5% corn starch): 151 mg/dL | blood glucose level (Mean) ([4]; composition: No additive): 166 mg/dL

GLP-1 (7-37) [GLP-1(7-37)]
blood glucose level (Mean) ([4]; composition: 5% corn starch): 146 mg/dL | blood glucose level (Mean) ([4]; composition: No additive): 170 mg/dL

[Lys^26, ε-NH{γ-Glu(N-α-palmitoyl)}]-GLP-1 (7-37)
blood glucose level (Mean) ([4]; composition: 5% corn starch): 154 mg/dL | blood glucose level (Mean) ([4]; composition: No additive): 184 mg/dL

[Val^8]-GLP-1 (7-37) (HVEGTFTSDVSSYLEGQAAKEFIAWLVKGRG; Glucagon-like peptide 1(7-37); UniProt P01275 98-128, looked up, variant A8V) [[Val^8]-GLP-1(7-37)]
blood glucose level (Mean) ([4]; composition: 5% corn starch): 147 mg/dL | blood glucose level (Mean) ([4]; composition: No additive): 168 mg/dL

casein
isoelectric point (pI) [5]: about 4.6
